These results are taken from patent US9845292B2 (Max-Planck-Gesellschaft zur Förderung der Wissenschaften …, priority 2013, dated 2017).

SMILES strings stand for the structures. Where two headings read alike, the source gives them in different places. Bounds are passed on as bounds.

Experiment [1] addresses T1, FKBP52 (Homo sapiens, UniProt Q02790).
T1 construct: Purified FK1-domains of FKBP51WT (4.5 nM) with F4 (3 nM), FKBP52WT (400 nM) with F2 (20 nM); implied by Ni-NTA purification) (N); made in house; host or cells: E. coli BL21(DE3)pLysS
T1 sequence (Q02790 50-138 limits assumed): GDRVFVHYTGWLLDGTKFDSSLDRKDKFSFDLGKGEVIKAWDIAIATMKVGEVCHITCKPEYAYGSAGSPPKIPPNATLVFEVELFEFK
In words: Fluorescence polarization binding assay, FK1-domain of FKBP52WT with tracer F2 (selectivity FKBP51 vs. FKBP52). To be noted: selectivity factor over FKBP52. As for the experimental part:
(§1) The target protein was also diluted in this assay buffer at double the highest concentration required for the final sample. This protein stock was used for a 1:1 serial dilution.
(§2) The inventive compound was dissolved in DMSO to reach a 100-times concentrated stock solution. This was used for a 1:1 serial dilution in DMSO.
(§3) For FKBP12, −51, and −52 the binding assays were performed in duplicates in the plate format.
(§4) The competition curves were analyzed by using SigmaPlot9. Data were fitted to a four parameter logistic curve to deduce the IC50 values. […] A=(Amax−Amin)/[L]t×(([L]t×((2×((Klig+Kcomp+[L]t+[I]t−[R]t)^2−3×(Kcomp×([L]t−[R]t)+Klig×([I]t−[R]t)+Klig×Kcomp))^0.5×COS(ARCCOS((−2×(Klig+Kcomp+[L]t+[I]t−[R]t)^3+9×(Klig+Kcomp+[L]t+[I]t−[R]t)×(Kcomp×([L]t−[R]t)+Klig×([I]t−[R]t)+Klig×Kcomp)−27×(−1×Klig×Kcomp×[R]t))/(2×((((Klig+Kcomp+[L]t+[I]t−[R]t)^2−3×(Kcomp×([L]t−[R]t)+Klig×([I]t−[R]t)+Klig×Kcomp))^3)^0.5)))/3))−(Klig+Kcomp+[L]t+[I]t−[R]t)))/((3×Klig)+((2×((Klig+Kcomp+[L]t+[I]t−[R]t)^2−3×(Kcomp×([L]t−[R]t)+Klig×([I]t−[R]t)+Klig×Kcomp))^0.5×COS(ARCCOS((−2×(Klig+Kcomp+[L]t+[I]t−[R]t)^3+9×(Klig+Kcomp+[L]t+[I]t−[R]t)×(Kcomp×([L]t−[R]t)+Klig×([I]t−[R]t)+Klig×Kcomp)−27×(−1×Klig×Kcomp×[R]t))/(2×((((Klig+Kcomp+[L]t+[I]t−[R]t)^2−3×(Kcomp×([L]t−[R]t)+Klig×([I]t−[R]t)+Klig×Kcomp))^3)^0.5)))/3))−(Klig+Kcomp+[L]t+[I]t−[R]t))))+Amin
(§5) In this equation Klig and Kcomp stand for the Kd values of the used tracer or competing inhibitor, [I]t is referring to the total concentration of the titrated inhibitor.
The Selectivity of the Compounds was Classified by Ki(FKBP51)/Ki(FKBP52)
(§6) Inhibition constants were measured in a fluorescence polarization binding assay by titrating the compounds.
A general note: In fluorescence polarisation assays a small probe gives low polarisation when free and higher when bound to something large.

Experiment [2] concerns the target T2, FKBP51 (Homo sapiens, UniProt Q13451).
T2 sequence (Q13451 42-130 limits assumed): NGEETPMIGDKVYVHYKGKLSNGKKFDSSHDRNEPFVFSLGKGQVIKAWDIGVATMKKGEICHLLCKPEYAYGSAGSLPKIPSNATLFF
Description: Fluorescence polarization binding assay, FK1-domain of FKBP51WT with tracer F4. Set-up: Purified FK1-domains of FKBP51WT (4.5 nM) with F4 (3 nM), FKBP52WT (400 nM) with F2 (20 nM); made in house; host or cells: E. coli BL21(DE3)pLysS. To be noted: read-out: Affinity(Ki) for FKBP51. The protocol:
as §1, §2, §3, §4, §5, §6

The mark [3] stands for this setting: FKBP52WT (400 nM) with F2 (20 nM), A series.
Setting [4] is: FK1-domain of FKBP51WT (4.5 nM) with F4 (3 nM), A series.

As usually defined, the Ki is the equilibrium dissociation constant of an inhibitor or competing ligand from its target. As to `COc1cc([C@@H](C(=O)N2CCCC[C@H]2C(=O)OC2C=CCCC2)C2CCCCC2)cc(OC)c1OC` (mixture of isomers) [Compound C15, (2S)-cyclohex-2-en-1-yl-1-((S)-2-cyclohexyl-2-(3,4,5-trimethoxyphenyl)acetyl) piperidine-2-carboxylate], in experiment [1] (compounds B01-C25), the “Ki(FKBP51)/Ki(FKBP52)” value is given as “++ (>50 ++)”. For the same molecule, the inhibition constant (Ki) in experiment [2] (compounds B01-C25) fell in the range of 1000 to 10000 nM.
Regarding `COc1ccc(CCC(OC(=O)C2CCCCN2C(=O)[C@H](c2cc(OC)c(OC)c(OC)c2)[C@@H]2C=CCCC2)c2cccc(OCCN3CCOCC3)c2)cc1OC` (stereo in doubt) [Compound A12, (S)-(R)-3-(3,4-Dimethoxyphenyl)-1-(3-(2-morpholinoethoxy)phenyl)propyl-1-((S)-2-((S)-cyclohex-2-en-1-yl)-2-(3,4,5-trimethoxyphenyl)acetyl)piperidine-2-carboxylate], in experiment [1] (setting [3]), the “Ki(FKBP51)/Ki(FKBP52)” value is “+++ (>500 +++)”. Further, the inhibitory constant (Ki) in experiment [2] (setting [4]) is under 100 nM.
`COc1ccc(OCCOC(=O)[C@@H]2CCCCN2C(=O)[C@H](c2cc(OC)c(OC)c(OC)c2)C2C=CCCC2)cc1OC` (stereo in doubt) [Compound A14, (S)-2-(3,4-Dimethoxyphenoxy)ethyl-1-((S)-2-((R)-cyclohex-2-en-1-yl)-2-(3,4,5-trimethoxyphenyl)acetyl)piperidine-2-carboxylate]: the “Ki(FKBP51)/Ki(FKBP52)” value in experiment [1] (setting [3]) is “++ (>50 ++)”. Besides, in experiment [2] (setting [4]), the Ki fell in the range of 100 to 1000 nM.
Regarding `COc1ccc(CCC(OC(=O)C2CCCN2C(=O)[C@H](c2cc(OC)c(OC)c(OC)c2)C2C=CCCC2)c2cccc(OCCN3CCOCC3)c2)cc1OC` (stereo in doubt) [Compound A15, (S)-(R)-3-(3,4-dimethoxyphenyl)-1-(3-(2-morpholinoethoxy)phenyl)propyl-1-((S)-2-((R)-cyclohex-2-en-1-yl)-2-(3,4,5-trimethoxyphenyl)acetyl)pyrrolidine-2-carboxylate], the “Ki(FKBP51)/Ki(FKBP52)” value in experiment [1] (setting [3]) is “+++ (>500 +++)”. Further, the Ki in experiment [2] (setting [4]) was under 100 nM.
Take `CCC(C)OC(=O)C1CCCCN1C(=O)[C@H](c1cc(OC)c(OC)c(OC)c1)C1CCCCC1` (stereo in doubt) [Compound C08, (S)-(R)-sec-butyl-1-((S)-2-cyclohexyl-2-(3,4,5-trimethoxyphenyl)acetyl) piperidine-2-carboxylate]: the “Ki(FKBP51)/Ki(FKBP52)” value in experiment [1] (compounds B01-C25) was “++ (>50 ++)”. Besides, the Ki in experiment [2] (compounds B01-C25) fell in the range of 1000 to 10000 nM.
Regarding `C=CC[C@H](C(=O)N1CCCC1C(=O)OC(CCc1ccc(OC)c(OC)c1)c1cccc(OCCN2CCOCC2)c1)c1cc(OC)c(OC)c(OC)c1` (stereo in doubt) [Reference A33, (S)-(R)-3-(3,4-Dimethoxyphenyl)-1-(3-(2-morpholinoethoxy)phenyl)propyl-1-((S)-2-(3,4,5-trimethoxyphenyl)pent-4-enoyl)pyrrolidine-2-carboxylate], in experiment [1] (setting [3]), the “Ki(FKBP51)/Ki(FKBP52)” value was “not selective (<5 not selective)”.
Regarding `C=CC[C@H](C(=O)N1CCCC[C@H]1C(=O)OC(CCCc1cccnc1)CCCc1cccnc1)c1cc(OC)c(OC)c(OC)c1` [Compound A04, (S)-1,7-di(pyridin-3-yl)heptan-4-yl 1-((S)-2-(3,4,5-trimethoxyphenyl)pent-4-enoyl)piperidine-2-carboxylate], in experiment [1] (setting [3]), the “Ki(FKBP51)/Ki(FKBP52)” value is “+ (>5 +)”. In experiment [2] (setting [4]), the Ki fell in the range of 10000 to 50000 nM.
In the same order, the values of `C=CC[C@H](C(=O)N1CCCC[C@H]1C(=O)N[C@H](CCc1ccc(OC)c(OC)c1)c1cccc(OCCN2CCOCC2)c1)c1cc(OC)c(OC)c(OC)c1` [Compound A05, (S)-N-((R)-3-(3,4-dimethoxyphenyl)-1-(3-(2-morpholinoethoxy)phenyl)propyl)-1-((S)-2-(3,4,5-trimethoxyphenyl)pent-4-enoyl)piperidine-2-carboxamide] are “+ (>5 +)” and 1000 to 10000 nM.
As to `C=CC[C@H](C(=O)N1CC=CC[C@H]1C(=O)O[C@H](CCc1ccc(OC)c(OC)c1)c1cccc(OCCN2CCOCC2)c1)c1cc(OC)c(OC)c(OC)c1` [Compound A06], in experiment [1] (setting [3]), the “Ki(FKBP51)/Ki(FKBP52)” value is “+ (>5 +)”. For the same molecule, the Ki in experiment [2] (setting [4]) was 10000 to 50000 nM.
For `COc1ccc(CC[C@@H](OC(=O)[C@@H]2CCCCN2C(=O)[C@@H](Cc2ccccc2)c2cc(OC)c(OC)c(OC)c2)c2cccc(OCC(=O)O)c2)cc1OC` [Compound A10, 2-(3-((R)-3-(3,4-dimethoxyphenyl)-1-(((S)-1-((S)-3-phenyl-2-(3,4,5-trimethoxyphenyl)propanoyl)piperidine-2-carbonyl)oxy)propyl)phenoxy)acetic acid] the same measures were “+ (>5 +)” and 10000 to 50000 nM.
In the same order, the values of `COc1ccc(CC[C@@H](OC(=O)[C@@H]2CCCCN2C(=O)[C@H](c2cc(OC)c(OC)c(OC)c2)[C@@H]2C=CCCC2)c2cccc(OCC(=O)O)c2)cc1OC` [Compound A11, 2-(3-((R)-1-(((S)-1-((S)-2-((S)-Cyclohex-2-en-1-yl)-2-(3,4,5-trimethoxyphenyl)acetyl)piperidine-2-carbonyl)oxy)-3-(3,4-dimethoxyphenyl)propyl)phenoxy) acetic acid] are “+++ (>500 +++)” and under 100 nM.
For `COc1cc([C@@H](C(=O)N2CCCC[C@H]2C(=O)OC(CCCc2cccnc2)CCCc2cccnc2)[C@@H]2C=CCCC2)cc(OC)c1OC` [Compound A13, (S)-1,7-Di(pyridin-3-yl)heptan-4-yl-1-((S)-2-((S)-cyclohex-2-en-1-yl)-2-(3,4,5-trimethoxyphenyl)acetyl)piperidine-2-carboxylate] the same measures were “+++ (>500 +++)” and under 100 nM.
Consider `COc1ccc(CCC(NC(=O)[C@@H]2CCCCN2C(=O)[C@H](c2cc(OC)c(OC)c(OC)c2)[C@@H]2C=CCCC2)c2cccc(OCC(=O)O)c2)cc1OC` (stereo partly drawn) [Compound A16, 2-(3-((R)-1-((S)-1-((S)-2-((R)-Cyclohex-2-en-1-yl)-2-(3,4,5-trimethoxyphenyl)acetyl)piper-idine-2-carboxamido)-3-(3,4-dimethoxyphenyl)propyl)phenoxy) acetic acid], for which the “Ki(FKBP51)/Ki(FKBP52)” value in experiment [1] (setting [3]) is given as “++ (>50 ++)”. Further, the inhibition constant (Ki) in experiment [2] (setting [4]) is 100 to 1000 nM.
In the same order, the values of `COc1cc([C@@H](C(=O)N2CCCC[C@H]2C(=O)OC(CCCc2cccnc2)CCCc2cccnc2)C2CCCCC2)cc(OC)c1OC` [Compound A19, (2S)-1,7-di(pyridin-3-yl)heptan-4-yl 1-(2-cyclohexyl-2-(3,4,5-trimethoxyphenyl)acetyl)piperidine-2-carboxylate] are “+++ (>500 +++)” and under 100 nM.
In the same order, the values of `COc1ccc(OCCOC(=O)[C@@H]2CCCCN2C(=O)[C@H](c2cc(OC)c(OC)c(OC)c2)C2CCCCC2)cc1OC` [Compound A20, (S)-2-(3,4-dimethoxyphenoxy)ethyl-1-((S)-2-cyclohexyl-2-(3,4,5-trimethoxyphenyl)acetyl)piperidine-2-carboxylate] are “++ (>50 ++)” and 100 to 1000 nM.
Regarding `COc1ccc(CC[C@@H](NC(=O)[C@@H]2CCCCN2C(=O)[C@H](c2cc(OC)c(OC)c(OC)c2)C2CCCCC2)c2cccc(OCC(=O)O)c2)cc1OC` [Compound A22, 2-(3-((R)-1-((S)-1-((S)-2-cyclohexyl-2-(3,4,5-trimethoxyphenyl)acetyl)piperidine-2-carboxamido)-3-(3,4-dimethoxyphenyl)propyl)phenoxy)acetic acid], in experiment [1] (setting [3]), the “Ki(FKBP51)/Ki(FKBP52)” value is reported as “++ (>50 ++)”. Also, the Ki in experiment [2] (setting [4]) lay in the range of 100 to 1000 nM.
As for `C=CC[C@H](C(=O)N1CCSC[C@H]1C(=O)O[C@H](CCc1ccc(OC)c(OC)c1)c1cccc(OCCN2CCOCC2)c1)c1cc(OC)c(OC)c(OC)c1` [Reference A34, (R)-(R)-3-(3,4-Dimethoxyphenyl)-1-(3-(2-morpholinoethoxy)phenyl)propyl-4-((S)-2-(3,4,5-trimethoxyphenyl)pent-4-enoyl)thiomorpholine-3-carboxylate], the “Ki(FKBP51)/Ki(FKBP52)” value in experiment [1] (setting [3]) is “not selective (<5 not selective)”.
